In general, inhibition refers to the drop in the measured response relative to a control, in per cent. One may read the IC50 as the concentration that inhibits the measured activity by half.

For six molecules, inhibition and IC50 results are on record in ChEMBL document CHEMBL3813665, “New cytotoxic and anti-inflammatory steroids from the soft coral Klyxum flaccidum” (Bioorg Med Chem Lett, 2016).

Structures are written as SMILES.

Test system in the first experiment: not listed separately
Description: Antiinflammatory activity in human neutrophils assessed as inhibition of fMLP/CB-induced elastase release using MeO-Suc-Ala-Ala-Pro-Val-p-nitroanilide as substrate at 10 uM after 5 mins by […] analysis. In kind it is functional. The conditions noted are these: Neutrophil.
In the case of `CC(C)[C@@H](C)[C@@]1(C)C[C@@H]1[C@@H](C)[C@H]1CC[C@H]2[C@H]3[C@H]([C@H](O)C[C@]12C)[C@@]1(C)CC[C@H](O)CC1=C[C@@H]3O`, the inhibition at 10 µM is 21.8%.
`CC(C)[C@@H](C)[C@@]1(C)C[C@@H]1[C@@H](C)[C@H]1CC[C@H]2[C@@H]3[C@@H](O)C=C4C[C@@H](O)CC[C@]4(C)[C@@]3(O)[C@H](O)C[C@]12C`: the inhibition at 10 µM was 16.4%.
Still for that read-out and setting: the same measure for `CC(C)[C@@H](C)[C@H](C)C[C@@](C)(O)C1=CC[C@H]2[C@@H]3CC=C4C[C@@H](O)CC[C@]4(C)[C@H]3[C@H](O)C[C@]12C`: 114%.

Test system in the next experiment: not listed separately
Description: Antiinflammatory activity in human neutrophils assessed as inhibition of fMLP/CB-induced superoxide anion generation at 10 uM after 5 mins by ferricytochrome c based spectrophotometric analysis. The conditions noted are these: Neutrophil. In kind it is functional.
On to `CC(C)[C@@H](C)[C@@]1(C)C[C@@H]1[C@@H](C)[C@H]1CC[C@H]2[C@H]3[C@H]([C@H](O)C[C@]12C)[C@@]1(C)CC[C@H](O)CC1=C[C@@H]3O`, for which the inhibition at 10 µM was determined as 11.1%.
With `CC(C)[C@@H](C)[C@@]1(C)C[C@@H]1[C@@H](C)[C@H]1CC[C@H]2[C@@H]3[C@@H](O)C=C4C[C@@H](O)CC[C@]4(C)[C@@]3(O)[C@H](O)C[C@]12C`, the inhibition at 10 µM is -5.97%.
Same read-out and setting: for `CC(C)[C@@H](C)[C@H](C)C[C@@](C)(O)C1=CC[C@H]2[C@@H]3CC=C4C[C@@H](O)CC[C@]4(C)[C@H]3[C@H](O)C[C@]12C` the value was 76.3%.

A further experiment has as its system HT-29. Description: Cytotoxicity against human HT-29 cells by Alamar blue assay. In kind it is functional, cell-based.
Conditions: not given
A general note: Resazurin is reduced to fluorescent resorufin, in cell work by metabolically active cells.
Molecule `CC(C)[C@@H](C)[C@@]1(C)C[C@@H]1[C@@H](C)[C@H]1CC[C@H]2[C@H]3[C@H]([C@H](O)C[C@]12C)[C@@]1(C)CC[C@H](O)CC1=C[C@@H]3O` displayed a 50% inhibitory concentration (IC50) of over 40 µM.
Same read-out and setting: the same measure for `CC(C)[C@@H](C)[C@@]1(C)C[C@@H]1[C@@H](C)[C@H]1CC[C@H]2[C@@H]3[C@@H](O)C=C4C[C@@H](O)CC[C@]4(C)[C@@]3(O)[C@H](O)C[C@]12C`: over 40 µM.
On the same count and under the same terms, for `CC(C)[C@@H](C)[C@H](C)C[C@@](C)(O)C1=CC[C@H]2[C@@H]3CC=C4C[C@@H](O)CC[C@]4(C)[C@H]3[C@H](O)C[C@]12C` the value was 15.1 µM; for `CC(C)[C@@H](C)[C@@]1(C)C[C@@H]1[C@@H](C)[C@H]1CC[C@H]2[C@H]3[C@H]([C@H](O)[C@H](O)[C@]12C)[C@@]1(C)CC[C@H](O)CC1=C[C@@H]3O`, over 40 µM; for `COc1cccc2c1C(=O)c1c(O)c3c(c(O)c1C2=O)C[C@@](O)(C(=O)CO)C[C@@H]3O[C@H]1C[C@H](N)[C@H](O)[C@H](C)O1` [DOXORUBICIN], 0.87 µM.

Another experiment concerns K562. The experiment can be described thus: Cytotoxicity against human K562 cells by Alamar blue assay. In kind it is functional, cell-based.
Conditions: not given
`CC(C)[C@@H](C)[C@@]1(C)C[C@@H]1[C@@H](C)[C@H]1CC[C@H]2[C@H]3[C@H]([C@H](O)C[C@]12C)[C@@]1(C)CC[C@H](O)CC1=C[C@@H]3O`: the IC50 is over 40 µM.
On the same count and under the same terms, the same measure for `CC(C)[C@@H](C)[C@@]1(C)C[C@@H]1[C@@H](C)[C@H]1CC[C@H]2[C@@H]3[C@@H](O)C=C4C[C@@H](O)CC[C@]4(C)[C@@]3(O)[C@H](O)C[C@]12C`: over 40 µM; for `CC(C)[C@@H](C)[C@H](C)C[C@@](C)(O)C1=CC[C@H]2[C@@H]3CC=C4C[C@@H](O)CC[C@]4(C)[C@H]3[C@H](O)C[C@]12C`: 12.7 µM; for `CC(C)[C@@H](C)[C@@]1(C)C[C@@H]1[C@@H](C)[C@H]1CC[C@H]2[C@H]3[C@H]([C@H](O)[C@H](O)[C@]12C)[C@@]1(C)CC[C@H](O)CC1=C[C@@H]3O`: over 40 µM.
Same read-out and setting: for `COc1cccc2c1C(=O)c1c(O)c3c(c(O)c1C2=O)C[C@@](O)(C(=O)CO)C[C@@H]3O[C@H]1C[C@H](N)[C@H](O)[C@H](C)O1` [DOXORUBICIN] the value was 0.94 µM.

Test system in another experiment: not listed separately
The experiment can be described thus: Antiinflammatory activity in human neutrophils assessed as inhibition of fMLP/CB-induced superoxide anion generation after 5 mins by ferricytochrome c based spectrophotometric analysis. The experiment is classed as functional, cell-based. The conditions noted are these: Neutrophil.
For `CC(C)[C@@H](C)[C@@]1(C)C[C@@H]1[C@@H](C)[C@H]1CC[C@H]2[C@H]3[C@H]([C@H](O)C[C@]12C)[C@@]1(C)CC[C@H](O)CC1=C[C@@H]3O`, the IC50 was over 10 µM.
With `CC(C)[C@@H](C)[C@@]1(C)C[C@@H]1[C@@H](C)[C@H]1CC[C@H]2[C@@H]3[C@@H](O)C=C4C[C@@H](O)CC[C@]4(C)[C@@]3(O)[C@H](O)C[C@]12C`, the IC50 was over 10 µM.
With `CC(C)[C@@H](C)[C@H](C)C[C@@](C)(O)C1=CC[C@H]2[C@@H]3CC=C4C[C@@H](O)CC[C@]4(C)[C@H]3[C@H](O)C[C@]12C`, the IC50 came to 5.64 µM.
The same measure, in the same setting: the same measure for `O=c1cc(N2CCOCC2)oc2c(-c3ccccc3)cccc12` [LY-294002]: 3.65 µM.

Another experiment concerns P388. Description: Cytotoxicity against mouse P388 cells by Alamar blue assay.
Conditions: not given
The experiment is classed as functional, cell-based.
The molecule `CC(C)[C@@H](C)[C@@]1(C)C[C@@H]1[C@@H](C)[C@H]1CC[C@H]2[C@H]3[C@H]([C@H](O)C[C@]12C)[C@@]1(C)CC[C@H](O)CC1=C[C@@H]3O` gave an IC50 of over 40 µM.
`CC(C)[C@@H](C)[C@@]1(C)C[C@@H]1[C@@H](C)[C@H]1CC[C@H]2[C@@H]3[C@@H](O)C=C4C[C@@H](O)CC[C@]4(C)[C@@]3(O)[C@H](O)C[C@]12C` showed an IC50 of over 40 µM.
The same measure, in the same setting: the same measure for `CC(C)[C@@H](C)[C@H](C)C[C@@](C)(O)C1=CC[C@H]2[C@@H]3CC=C4C[C@@H](O)CC[C@]4(C)[C@H]3[C@H](O)C[C@]12C`: 14.8 µM.
`CC(C)[C@@H](C)[C@@]1(C)C[C@@H]1[C@@H](C)[C@H]1CC[C@H]2[C@H]3[C@H]([C@H](O)[C@H](O)[C@]12C)[C@@]1(C)CC[C@H](O)CC1=C[C@@H]3O` had an IC50 of 15.5 µM.
On the same count and under the same terms, the same measure for `COc1cccc2c1C(=O)c1c(O)c3c(c(O)c1C2=O)C[C@@](O)(C(=O)CO)C[C@@H]3O[C@H]1C[C@H](N)[C@H](O)[C@H](C)O1` [DOXORUBICIN]: 0.9 µM.

Test system in a further experiment: not listed separately
Description: Cytotoxicity against human DLD1 cells by Alamar blue assay. The experiment is classed as functional, cell-based. The following applies: DLD-1.
`CC(C)[C@@H](C)[C@@]1(C)C[C@@H]1[C@@H](C)[C@H]1CC[C@H]2[C@H]3[C@H]([C@H](O)C[C@]12C)[C@@]1(C)CC[C@H](O)CC1=C[C@@H]3O`: the IC50 was over 40 µM.
Still for that read-out and setting: for `CC(C)[C@@H](C)[C@@]1(C)C[C@@H]1[C@@H](C)[C@H]1CC[C@H]2[C@@H]3[C@@H](O)C=C4C[C@@H](O)CC[C@]4(C)[C@@]3(O)[C@H](O)C[C@]12C` the value was over 40 µM.
For the molecule `CC(C)[C@@H](C)[C@H](C)C[C@@](C)(O)C1=CC[C@H]2[C@@H]3CC=C4C[C@@H](O)CC[C@]4(C)[C@H]3[C@H](O)C[C@]12C`, the IC50 is over 40 µM.
In turn, `CC(C)[C@@H](C)[C@@]1(C)C[C@@H]1[C@@H](C)[C@H]1CC[C@H]2[C@H]3[C@H]([C@H](O)[C@H](O)[C@]12C)[C@@]1(C)CC[C@H](O)CC1=C[C@@H]3O` returned a concentration for half-maximal inhibition (IC50) of over 40 µM.
The molecule `COc1cccc2c1C(=O)c1c(O)c3c(c(O)c1C2=O)C[C@@](O)(C(=O)CO)C[C@@H]3O[C@H]1C[C@H](N)[C@H](O)[C@H](C)O1` [DOXORUBICIN] came in with an IC50 of 2.78 µM.

Test system in another experiment: not listed separately
The experiment can be described thus: Antiinflammatory activity in human neutrophils assessed as inhibition of fMLP/CB-induced elastase release using MeO-Suc-Ala-Ala-Pro-Val-p-nitroanilide as substrate after 5 mins by […] analysis. In kind it is functional, cell-based. The conditions noted are these: Neutrophil.
With `CC(C)[C@@H](C)[C@@]1(C)C[C@@H]1[C@@H](C)[C@H]1CC[C@H]2[C@H]3[C@H]([C@H](O)C[C@]12C)[C@@]1(C)CC[C@H](O)CC1=C[C@@H]3O`, the half-maximal inhibitory concentration (IC50) is over 10 µM.
The same measure, in the same setting: for `CC(C)[C@@H](C)[C@@]1(C)C[C@@H]1[C@@H](C)[C@H]1CC[C@H]2[C@@H]3[C@@H](O)C=C4C[C@@H](O)CC[C@]4(C)[C@@]3(O)[C@H](O)C[C@]12C` the value was over 10 µM; for `CC(C)[C@@H](C)[C@H](C)C[C@@](C)(O)C1=CC[C@H]2[C@@H]3CC=C4C[C@@H](O)CC[C@]4(C)[C@H]3[C@H](O)C[C@]12C`, 4.4 µM; for `O=c1cc(N2CCOCC2)oc2c(-c3ccccc3)cccc12` [LY-294002], 5.15 µM.

For another experiment, the system named is A549. Description: Cytotoxicity against human A549 cells by Alamar blue assay. The experiment is classed as functional, cell-based.
Conditions: not given
Take `CC(C)[C@@H](C)[C@@]1(C)C[C@@H]1[C@@H](C)[C@H]1CC[C@H]2[C@H]3[C@H]([C@H](O)C[C@]12C)[C@@]1(C)CC[C@H](O)CC1=C[C@@H]3O`: the half-maximal inhibitory concentration (IC50) is over 40 µM.
`CC(C)[C@@H](C)[C@@]1(C)C[C@@H]1[C@@H](C)[C@H]1CC[C@H]2[C@@H]3[C@@H](O)C=C4C[C@@H](O)CC[C@]4(C)[C@@]3(O)[C@H](O)C[C@]12C` displayed an IC50 of over 40 µM.
On the same count and under the same terms, the same measure for `CC(C)[C@@H](C)[C@H](C)C[C@@](C)(O)C1=CC[C@H]2[C@@H]3CC=C4C[C@@H](O)CC[C@]4(C)[C@H]3[C@H](O)C[C@]12C`: over 40 µM; for `CC(C)[C@@H](C)[C@@]1(C)C[C@@H]1[C@@H](C)[C@H]1CC[C@H]2[C@H]3[C@H]([C@H](O)[C@H](O)[C@]12C)[C@@]1(C)CC[C@H](O)CC1=C[C@@H]3O`: over 40 µM.
Same read-out and setting: for `COc1cccc2c1C(=O)c1c(O)c3c(c(O)c1C2=O)C[C@@](O)(C(=O)CO)C[C@@H]3O[C@H]1C[C@H](N)[C@H](O)[C@H](C)O1` [DOXORUBICIN] the value was 0.55 µM.
